In patent publication US20250051319A1 (AUGUSTINE THERAPEUTICS, priority 2021, published 2025):

Tests used:
[1] = target: catalytic domain 2 (CD2) of HDAC6 (Homo sapiens (Human), UniProt Q9UBN7); assay: Cellular target engagement assay - NanoBRET; assay type: cell-based; details: NanoLuc-HDAC6(CD2) in HEK293T cells, 2 hours, read-out: IC50 (HDAC6(CD2) interaction)
[2] = target: human full-length recombinant HDAC6 (Homo sapiens (Human), UniProt Q9UBN7); assay: HDAC6 enzymatic activity assay (alternative protocol, Ac-Gly-Ala-Lys(Ac)-AMC); assay type: biochemical; details: 5 nM enzyme, read-out: HDAC6 biochem
Description: (§1) Inhibition of HDAC enzymes was performed in 384-well plate format using human full-length recombinant HDAC1 and HDAC6, isolated from a baculovirus expression system in Sf9 cells (BPS Bioscience). Reaction buffer for HDAC1 contained 50 mM Tris HCl pH 8.0, 137 mM NaCl, 2.7 mM KCl, 1 mM MgCl2, 0.1 mg/mL BSA, and reaction buffer for HDAC6 contained 50 mM Tris/HCl, pH 8.0, 137 mM NaCl, 2.7 mM KCl, 250 μM EDTA, 1 mM DTT, 0.1 mg/mL BSA. Compounds (dissolved in 100% DMSO) or DMSO (vehicle) were diluted in assay buffer at 3× final assay concentration and then added to assay plates. SAHA ([…]) was used as a positive control. 3× final assay concentration of recombinant enzymes (final assay concentration is 4 nM and 5 nM for HDAC1 and HDAC6, respectively) were preincubated for 10 minutes with test compounds at room temperature. Afterwards, 3× final assay concentration of an acetylated fluorogenic peptide (Ac-Gly-Ala-Lys(Ac))-AMC, Bachem; final assay concentration is 12 µM and 40 µM for HDAC1 and HDAC6, respectively) was added to assay plate, allowing deacetylase reactions to incubate for 60 minutes at room temperature. The developer reagent containing 5 μM SAHA and 50 μM trypsin was added to stop the deacetylase reaction and generate AMNC-fluorescence. 15 minutes after addition of developer reagent, endpoint measurements were taken using CLARIOstar (BMG Labtech) plate reader (excitation/emission: 360/450). Fluorescence signals were normalized for each plate using GraphPad Prism software: reaction HDAC-substrate in presence of DMSO was set to 100% while reaction HDAC-substrate in presence of 10 μM SAHA was set to 0%.

[3] = target: human full-length recombinant HDAC1 (Homo sapiens (Human), UniProt Q13547); assay: HDAC1 enzymatic activity assay (alternative protocol, Ac-Gly-Ala-Lys(Ac)-AMC); assay type: biochemical; details: 4 nM enzyme, read-out: HDAC1 biochem
Description: as §1

Chain of catalytic domain 2 (CD2) of HDAC6 (Q9UBN7 482-800): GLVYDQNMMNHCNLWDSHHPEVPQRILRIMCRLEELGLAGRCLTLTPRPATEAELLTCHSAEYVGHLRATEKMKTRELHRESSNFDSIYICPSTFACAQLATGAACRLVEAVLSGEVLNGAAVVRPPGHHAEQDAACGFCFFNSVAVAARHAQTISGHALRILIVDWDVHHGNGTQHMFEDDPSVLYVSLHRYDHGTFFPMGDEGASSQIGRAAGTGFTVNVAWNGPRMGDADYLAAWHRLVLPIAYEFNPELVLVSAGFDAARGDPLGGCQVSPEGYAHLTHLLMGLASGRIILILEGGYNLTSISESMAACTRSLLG
Chain of human full-length recombinant HDAC6 (Q9UBN7 whole entry): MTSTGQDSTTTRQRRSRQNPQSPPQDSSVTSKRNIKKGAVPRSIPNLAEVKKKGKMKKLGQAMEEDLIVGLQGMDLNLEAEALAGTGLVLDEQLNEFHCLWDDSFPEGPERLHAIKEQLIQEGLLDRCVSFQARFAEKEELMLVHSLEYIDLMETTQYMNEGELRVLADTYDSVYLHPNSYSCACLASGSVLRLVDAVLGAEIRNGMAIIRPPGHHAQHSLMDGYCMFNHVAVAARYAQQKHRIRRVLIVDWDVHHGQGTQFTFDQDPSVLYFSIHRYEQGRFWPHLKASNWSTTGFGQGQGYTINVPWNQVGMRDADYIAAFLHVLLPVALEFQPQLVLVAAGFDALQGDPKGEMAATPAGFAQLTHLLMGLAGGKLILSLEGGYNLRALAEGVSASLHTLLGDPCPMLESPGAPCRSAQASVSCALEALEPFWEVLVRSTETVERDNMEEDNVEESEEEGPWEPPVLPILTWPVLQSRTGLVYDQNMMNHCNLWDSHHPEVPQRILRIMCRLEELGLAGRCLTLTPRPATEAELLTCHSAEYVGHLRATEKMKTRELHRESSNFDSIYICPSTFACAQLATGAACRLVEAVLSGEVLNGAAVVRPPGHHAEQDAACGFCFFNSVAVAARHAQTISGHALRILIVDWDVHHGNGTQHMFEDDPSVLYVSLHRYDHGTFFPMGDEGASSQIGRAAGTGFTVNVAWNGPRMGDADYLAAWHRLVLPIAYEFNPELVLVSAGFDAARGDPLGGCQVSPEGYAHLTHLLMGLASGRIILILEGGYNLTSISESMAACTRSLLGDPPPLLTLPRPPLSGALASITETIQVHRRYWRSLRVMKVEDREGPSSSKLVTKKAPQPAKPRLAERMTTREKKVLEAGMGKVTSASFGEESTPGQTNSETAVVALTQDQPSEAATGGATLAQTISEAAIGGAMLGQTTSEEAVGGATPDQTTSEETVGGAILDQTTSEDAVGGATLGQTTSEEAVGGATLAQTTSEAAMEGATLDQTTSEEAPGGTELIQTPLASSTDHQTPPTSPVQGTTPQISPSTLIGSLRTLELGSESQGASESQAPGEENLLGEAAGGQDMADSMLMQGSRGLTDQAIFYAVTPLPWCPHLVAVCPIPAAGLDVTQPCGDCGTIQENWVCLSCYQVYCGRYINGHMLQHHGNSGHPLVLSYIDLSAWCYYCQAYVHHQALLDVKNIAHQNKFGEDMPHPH
Chain of human full-length recombinant HDAC1 (Q13547 whole entry): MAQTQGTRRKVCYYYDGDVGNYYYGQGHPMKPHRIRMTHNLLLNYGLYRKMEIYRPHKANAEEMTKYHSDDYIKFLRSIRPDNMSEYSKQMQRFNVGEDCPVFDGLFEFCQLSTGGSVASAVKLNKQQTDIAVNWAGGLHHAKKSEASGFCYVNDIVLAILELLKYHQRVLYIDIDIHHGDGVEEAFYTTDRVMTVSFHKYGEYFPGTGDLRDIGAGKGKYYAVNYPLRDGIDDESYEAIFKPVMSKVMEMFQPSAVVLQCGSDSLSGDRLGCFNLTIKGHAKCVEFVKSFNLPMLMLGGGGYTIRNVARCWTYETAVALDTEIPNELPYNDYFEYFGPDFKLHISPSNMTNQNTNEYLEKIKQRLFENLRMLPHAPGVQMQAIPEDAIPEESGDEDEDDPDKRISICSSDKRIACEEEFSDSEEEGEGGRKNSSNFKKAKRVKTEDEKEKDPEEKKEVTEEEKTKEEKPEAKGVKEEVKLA

Row | Compound | IC50 [1] | IC50 [2] | IC50 [3]
1 | Cn1ncc2c(SCC(=O)c3ccc(CNC(=O)Cc4ccccn4)s3)ncnc21 [Compound 55, N-((5-(2-((1-methyl-1H-pyrazolo[3,4-d]pyrimidin-4-yl)thio)acetyl)thiophen-2-yl)methyl)-2-(160yrrolid-2-yl)acetamide] | 500 to 1000 nM | ≤ 100 nM | > 10000 nM
2 | Cn1ncc2c(SCC(=O)c3ccc(CNC(=O)Cc4cccnc4)s3)ncnc21 [Compound 56, N-((5-(2-((1-methyl-1H-pyrazolo[3,4-d]pyrimidin-4-yl)thio)acetyl)thiophen-2-yl)methyl)-2-(160yrrolid-3-yl)acetamide] | ≤ 100 nM | ≤ 100 nM | > 10000 nM
3 | Cn1ncc2c(SCC(=O)c3ccc(CNC(=O)Cc4ccncc4)s3)ncnc21 [Compound 57, N-((5-(2-((1-methyl-1H-pyrazolo[3,4-d]pyrimidin-4-yl)thio)acetyl)thiophen-2-yl)methyl)-2-(160yrrolid-4-yl)acetamide] | 100 to 500 nM | ≤ 100 nM | > 10000 nM
4 | COCC(=O)NCc1ccc(C(=O)CSc2ncnc3c2cnn3C)s1 [Compound 58, 2-methoxy-N-((5-(2-((1-methyl-1H-pyrazolo[3,4-d]pyrimidin-4-yl)thio)acetyl)thiophen-2-yl)methyl)acetamide] | 1000 to 10000 nM | ≤ 100 nM | > 10000 nM
5 | Cn1ncc2c(SCC(=O)c3ccc(CNC(=O)CO)s3)ncnc21 [Compound 59, 2-hydroxy-N-((5-(2-((1-methyl-1H-pyrazolo[3,4-d]pyrimidin-4-yl)thio)acetyl)thiophen-2-yl)methyl)acetamide] | 100 to 500 nM | ≤ 100 nM | > 10000 nM
6 | Cn1ncc2c(SCC(=O)c3ccc(CNS(C)(=O)=O)s3)ncnc21 [Compound 87] | 100 to 500 nM | ≤ 100 nM | > 10000 nM
7 | Cn1ncc2c(SCC(=O)c3ccc(CNS(=O)(=O)Cc4ccccc4)s3)ncnc21 [Compound 90, N-((5-(2-((1-methyl-1H-pyrazolo[3,4-d]pyrimidin-4-yl)thio)acetyl)thiophen-2-yl)methyl)-1-phenylmethanesulfonamide] | 1000 to 10000 nM | ≤ 100 nM | > 10000 nM
8 | CN(Cc1ccc(C(=O)CSc2ncnc3c2cnn3C)s1)S(=O)(=O)C1CC1 [Compound 91, N-methyl-N-((5-(2-((1-methyl-1H-pyrazolo[3,4-d]pyrimidin-4-yl)thio)acetyl)thiophen-2-yl)methyl)cyclopropanesulfonamide] | 100 to 500 nM | ≤ 100 nM | > 10000 nM
9 | CN(Cc1ccc(C(=O)CSc2ncnc3c2cnn3C)s1)S(=O)(=O)Cc1ccncc1 [Compound 92, N-methyl-N-((5-(2-((1-methyl-1H-pyrazolo[3,4-d]pyrimidin-4-yl)thio)acetyl)thiophen-2-yl)methyl)-1-(162yrrolid-4-yl)methanesulfonamide] | 100 to 500 nM | ≤ 100 nM | 1000 to 10000 nM
10 | Cc1nc(SCC(=O)c2ccc(CNS(=O)(=O)CC3CC3)s2)c2ccccc2n1 [Compound 93, 1-cyclopropyl-N-((5-(2-((2-methylquinazolin-4-yl)thio)acetyl)thiophen-2-yl)methyl)methanesulfonamide] | 100 to 500 nM | ≤ 100 nM | > 10000 nM
11 | Cc1nc(SCC(=O)c2ccc(CCNS(C)(=O)=O)s2)c2ccccc2n1 [Compound 94, N-(2-(5-(2-((2-methylquinazolin-4-yl)thio)acetyl)thiophen-2-yl)ethyl)methanesulfonamide] | 100 to 500 nM | ≤ 100 nM | > 10000 nM
12 | CS(=O)(=O)N1CCC(c2ccc(C(=O)CSc3nc(C(F)(F)F)nc4ccccc34)s2)C1 (stereo not drawn) [Compound 95, 1-(5-(1-(methylsulfonyl)163yrrolidine-3-yl)thiophen-2-yl)-2-((2-(trifluoromethyl)quinazolin-4-yl)thio)ethanone] | 100 to 500 nM | ≤ 100 nM | > 10000 nM
13 | Cc1nc(SCC(=O)c2ccc(CNS(C)(=O)=O)s2)c2ccccc2n1 [Compound 97, N-((5-(2-((2-methylquinazolin-4-yl)thio)acetyl)thiophen-2-yl)methyl)methanesulfonamide] | 100 to 500 nM | ≤ 100 nM | 1000 to 10000 nM
14 | CS(=O)(=O)NCCc1ccc(C(=O)CSc2nc(C(F)(F)F)nc3ccccc23)s1 [Compound 98, N-(2-(5-(2-((2-(trifluoromethyl)quinazolin-4-yl)thio)acetyl)thiophen-2-yl)ethyl)methanesulfonamide] | ≤ 100 nM | ≤ 100 nM | > 10000 nM
15 | CC(C)c1nc(SCC(=O)c2ccc(CNC(=O)C(C)(C)C)s2)c2ccccc2n1 [Example 1, N-((5-(2-((2-isopropylquinazolin-4-yl)thio)acetyl)thiophen-2-yl)methyl)pivalamide] | 100 to 500 nM | ≤ 100 nM | > 10000 nM
16 | CC(C)(C)C(=O)NCc1ccc(C(=O)CSc2nc(C3CC3)nc3ccccc23)s1 [Example 2, N-((5-(2-((2-cyclopropylquinazolin-4-yl)thio)acetyl)thiophen-2-yl)methyl)pivalamide] | 100 to 500 nM | ≤ 100 nM | > 10000 nM
17 | Cc1nc(SCC(=O)c2ccc(CNC(=O)C(C)(C)C)s2)c2ccccc2n1 [Example 3, N-((5-(2-((2-methylquinazolin-4-yl)thio)acetyl)thiophen-2-yl)methyl)pivalamide] | ≤ 100 nM | ≤ 100 nM | 1000 to 10000 nM
18 | COCc1nc(SCC(=O)c2ccc(CNC(=O)C(C)(C)C)s2)c2ccccc2n1 [Example 4, N-((5-(2-((2-(methoxymethyl)quinazolin-4-yl)thio)acetyl)thiophen-2-yl)methyl)pivalamide] | 500 to 1000 nM | ≤ 100 nM | > 10000 nM
19 | Cc1nc(SCC(=O)c2ccc(CNC(=O)C(C)(C)C)s2)c2cnn(C)c2n1 [Example 5, N-((5-(2-((1,6-dimethyl-1H-pyrazolo[3,4-d]pyrimidin-4-yl)thio)acetyl)thiophen-2-yl)methyl)pivalamide] | 500 to 1000 nM | ≤ 100 nM | > 10000 nM
20 | Cn1ncc2c(SCC(=O)c3ccc(CNC(=O)C(C)(C)C)s3)nc(C3CC3)nc21 [Example 6, N-((5-(2-((6-cyclopropyl-1-methyl-1H-pyrazolo[3,4-d]pyrimidin-4-yl)thio)acetyl)thiophen-2-yl)methyl)pivalamide] | 100 to 500 nM | ≤ 100 nM | > 10000 nM
21 | Cc1nc(SCC(=O)c2ccc(CNC(=O)C(C)(C)C)s2)c2cccnc2n1 [Example 7, N-((5-(2-((2-methylpyrido[2,3-d]pyrimidin-4-yl)thio)acetyl)thiophen-2-yl)methyl)pivalamide] | ≤ 100 nM | ≤ 100 nM | 1000 to 10000 nM
22 | Cn1ncc2c(SCC(=O)c3ccc(CNC(=O)Cc4ccccc4)s3)ncnc21 [Example 32, N-((5-(2-((1-methyl-1H-pyrazolo[3,4-d]pyrimidin-4-yl)thio)acetyl)thiophen-2-yl)methyl)-2-phenylacetamide] | – | ≤ 100 nM | > 10000 nM
23 | O=C(CO)NCc1ccc(C(=O)CSc2nccn3cncc23)s1 [Example 181, 2-hydroxy-N-((5-(2-(imidazo[1,5-a]pyrazin-8-ylthio)acetyl)thiophen-2-yl)methyl)acetamide] | 100 to 500 nM | – | –
24 | O=C(CO)NCc1ccc(C(=O)CSc2nccn3nccc23)s1 [Example 182, 2-hydroxy-N-((5-(2-(pyrazolo[1,5-a]pyrazin-4-ylthio)acetyl)thiophen-2-yl)methyl)acetamide] | 1000 to 10000 nM | – | –
25 | COc1ccc2nc(C)nc(SCC(=O)c3ccc(CNC(=O)N(C)C)s3)c2c1 [Example 189, 3-((5-(2-((6-methoxy-2-methylquinazolin-4-yl)thio)acetyl)thiophen-1-yl)methyl)-1,1-dimethylurea] | 100 to 500 nM | – | –
26 | COc1cnc2nc(C)nc(SCC(=O)c3ccc(CNC(=O)OC(C)(C)C)s3)c2c1 [Example 190, tert-butyl ((5-(2-((6-methoxy-2-methylpyrido[2,3-d]pyrimidin-4-yl)thio)acetyl)thiophen-2-yl)methyl)carbamate] | 100 to 500 nM | – | –
27 | CC(C)(C)C(=O)NCc1ccc(C(=O)CSc2nc(C(F)(F)F)cc3ccccc23)s1 [Example 191, N-((5-(2-((3-(trifluoromethyl)isoquinolin-1-yl)thio)acetyl)thiophen-2-yl)methyl)pivalamide] | – | 1000 to 10000 nM | > 10000 nM
28 | Cn1ncc2c(SCC(=O)c3nnc(CNC(=O)C(C)(C)C)s3)ncnc21 [Example 192, N-((5-(2-(1-methyl-1H-pyrazolo[3,4-d]pyrimidin-4-ylthio)acetyl)-1,3,4-thiadiazol-2-yl)methyl)pivalamide] | – | 100 to 500 nM | 500 to 1000 nM
29 | CC(C)(C)C(=O)NCc1ccc(C(=O)CSc2nnc(C(F)(F)F)c3ccccc23)s1 [Example 195] | – | ≤ 100 nM | > 10000 nM
